# Measurements published in PubChem BioAssay AID1963870 (Molecular Pharmacology Branch, DTP, NCI, 2024).
# Test system: 292921-168-R-J2-PDC KRAS tumor spheroid viability
# Assay: Anticancer human tumor 292921-168-R-J2-PDC patient-derived pancreatic carcinoma cell line growth inhibition [KRAS2]
# Conditions: spheroids with HUVEC and MSC; for IC50: curve of first compound; for viability, T/C: stronger effect = lower value
# Description: Multicellular complex tumor spheroid response to RAS pathway inhibitors in combination with a targeted agents in patient-derived cell lines with oncogenic KRAS variants from multiple cancer types
# A high-throughput screen of multi-cell type tumor spheroids was designed to identify active combinations of targeted small molecules and KRAS pathway inhibitors. Complex spheroids include a stromal component modeled by human endothelial cells (HUVEC) and fibroblasts modeled by human mesenchymal stem cells (MSCs). The concentration ranges selected for each drug and investigational agent were based upon clinically achievable concentrations if the clinical Cmax of the agent was known.
# Compounds. The drugs and investigational agents: BI-3406 (NSC825286), BAY-293 (NSC824723), batoprotafib (TNO155; NSC825523), sotorasib (AMG 510; NSC818433), MRTX1257 (NSC819558), elimusertib (BAY 1895344; NSC800525), molibresib (GSK525762; NSC774829), temuterkib (LY3214996; NSC803410), venetoclax (NSC766270), alisertib (NSC759677), olaparib (NSC753686), talazoparib (NSC767125), erdafitinib (NSC781556), ipatasertib (NSC767898), cabozantinib (NSC761068), nintedanib (NSC756659), abemaciclib (NSC768073), docetaxel (NSC628503), trametinib (NSC758246), and sapanisertib (NSC764658) were obtained from the National Cancer Institute (NCI) Developmental Therapeutics Program Chemical Repository. The FDA-approved anticancer drug set is available from the Developmental Therapeutics Program. […] The stock solutions were prepared in dimethyl sulfoxide (DMSO, Sigma-Aldrich, St. Louis, MO, cat. D2650) at 800-fold the tested concentration and stored at -70 degrees C prior to their use. All drugs and investigational agents were tested over a range starting from a high concentration at or near the clinical Cmax and decreasing in half-log increments. If the clinical Cmax for an agent had not been determined, the highest concentration tested was 10 microM.
# Cell Culture. All cells were maintained in an incubator at 37 degrees C and 5% CO2 with 95% humidity. The PDC lines were cultured according to standard operating procedures established by the NCI PDMR (https://pdmr.cancer.gov/sops/default.htm). Briefly, all PDCs were thawed and cultured in Matrigel-coated flasks prepared with a working solution of 1X Ham's F-12 nutrient mix, without supplementation (Invitrogen, Waltham, MA, cat. 11765054), 100 U/mL penicillin-streptomycin (Invitrogen, cat. 15140122), and 2.5% Matrigel (Corning Inc., Corning, NY, cat. 354248) for the first three passages. All PDCs were cultured in complete DMEM/F-12 media containing advanced DMEM/F-12 (Invitrogen, cat. 12634028), 4.9% defined fetal bovine serum, heat inactivated (HyClone Laboratories Inc., Logan, UT, cat. SH30070.03HI), 389 ng/mL hydrocortisone (Sigma-Aldrich, cat. H4001), 9.7 ng/mL human EGF recombinant protein (Invitrogen, cat. PHG0313), 23.4 microg/mL adenine (Sigma-Aldrich, cat. A2786), 97.3 U/mL penicillin-streptomycin (Invitrogen, cat. 15140122), 1.9 mM L-glutamine (Invitrogen, cat. 25030081), and 9.7 microM Y-27632 dihydrochloride (Tocris Bioscience, Bristol, United Kingdom, cat. 1254). The PDCs were cultured in complete DMEM/F12 media without 9.7 microM Y-27632 dihydrochloride for at least two passages prior to the screen. The established cell line HOP-62 was cultured in RPMI 1640 medium, HEPES (Invitrogen, cat. 22400105) with 10% defined fetal bovine serum (HyClone Laboratories Inc., cat. SH30070.03) and 2 mM L-glutamine (Invitrogen, cat. 25030081). The pooled donor HUVEC were cultured in endothelial cell growth medium 2 (PromoCell, Heidelberg, Germany, cat. C-22011) and the hMSC were cultured in mesenchymal stem cell growth medium 2 (PromoCell, cat. C-28009). For all experiments, HUVEC and hMSC were used at passages </=5, while the malignant cell lines were used at passages </=15. […]
# [1] = second compound 0.1 µM, first compound 0.00316 µM
# [2] = second compound 0.1 µM, first compound 0.01 µM
# [3] = second compound 0.1 µM, first compound 0.0316 µM
# [4] = second compound 0.1 µM, first compound 0.1 µM
# [5] = second compound 0.316 µM, first compound 0.00316 µM
# [6] = second compound 0.316 µM, first compound 0.01 µM
# [7] = second compound 0.316 µM, first compound 0.0316 µM
# [8] = second compound 0.316 µM, first compound 0.1 µM
# [9] = second compound 1 µM, first compound 0.00316 µM
# [10] = second compound 1 µM, first compound 0.01 µM
# [11] = second compound 1 µM, first compound 0.0316 µM
# [12] = second compound 1 µM, first compound 0.1 µM
# [13] = second compound 3.16 µM, first compound 0.00316 µM
# [14] = second compound 3.16 µM, first compound 0.01 µM
# [15] = second compound 3.16 µM, first compound 0.0316 µM
# [16] = second compound 3.16 µM, first compound 0.1 µM
# [17] = second compound 10 µM, first compound 0.00316 µM
# [18] = second compound 10 µM, first compound 0.01 µM
# [19] = second compound 10 µM, first compound 0.0316 µM
# [20] = second compound 10 µM, first compound 0.1 µM
# [21] = second compound 0.1 µM, first compound 0.316 µM
# [22] = second compound 0.1 µM, first compound 1 µM
# [23] = second compound 0.316 µM, first compound 0.316 µM
# [24] = second compound 0.316 µM, first compound 1 µM
# [25] = second compound 1 µM, first compound 0.316 µM
# [26] = second compound 1 µM, first compound 1 µM
# [27] = second compound 3.16 µM, first compound 0.316 µM
# [28] = second compound 3.16 µM, first compound 1 µM
# [29] = second compound 10 µM, first compound 0.316 µM
# [30] = second compound 10 µM, first compound 1 µM
# 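Note: drug exposure lasted seven days after spheroids formed for three days.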
# 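Throughout, for viability, T/C: percent of DMSO vehicle control viability which is 100%.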
Compound,IC50 (second compound 0.1 µM) [nM],IC50 (second compound 0.316 µM) [nM],IC50 (second compound 1 µM) [nM],IC50 (second compound 3.16 µM) [nM],IC50 (second compound 10 µM) [nM],"viability, T/C [1] [%]","viability, T/C [2] [%]","viability, T/C [3] [%]","viability, T/C [4] [%]","viability, T/C [5] [%]","viability, T/C [6] [%]","viability, T/C [7] [%]","viability, T/C [8] [%]","viability, T/C [9] [%]","viability, T/C [11] [%]","viability, T/C [12] [%]","viability, T/C [15] [%]","viability, T/C [16] [%]","viability, T/C [19] [%]","viability, T/C [20] [%]",further results
CC(C)n1nc(-c2ccc3oc(N)nc3c2)c2c(N)ncnc21 + C=CC(=O)N1CCN(c2nc(=O)n(-c3c(C)ccnc3C(C)C)c3nc(-c4c(O)cccc4F)c(F)cc23)C(C)C1,6.89,9.61,11.7,4.93,< 0.316,62,44.5,32.8,27,66.9,53.6,33.6,29.7,77.1,38.3,32.3,36.7,30.9,29.5,27.1,"viability, T/C (second compound 0.1 µM, first compound 0.000316 µM): 107%; viability, T/C (second compound 0.1 µM, first compound 0.001 µM): 88.6%; viability, T/C (second compound 0.316 µM, first compound 0.000316 µM): 111%; viability, T/C (second compound 0.316 µM, first compound 0.001 µM): 99.7%; viability, T/C (second compound 1 µM, first compound 0.000316 µM): 121%; viability, T/C (second compound 1 µM, first compound 0.001 µM): 99.7%; viability, T/C [10]: 50.4%; viability, T/C (second compound 3.16 µM, first compound 0.000316 µM): 68.4%; viability, T/C (second compound 3.16 µM, first compound 0.001 µM): 72.6%; viability, T/C [13]: 55.3%; viability, T/C [14]: 40.1%; viability, T/C (second compound 10 µM, first compound 0.000316 µM): 26.3%; viability, T/C (second compound 10 µM, first compound 0.001 µM): 33.3%; viability, T/C [17]: 30%; viability, T/C [18]: 31.2%"
CCN1CCN(Cc2ccc(Nc3ncc(F)c(-c4cc(F)c5nc(C)n(C(C)C)c5c4)n3)nc2)CC1 + C=CC(=O)N1CCN(c2nc(=O)n(-c3c(C)ccnc3C(C)C)c3nc(-c4c(O)cccc4F)c(F)cc23)C(C)C1,58.1,85.6,108,11.3,< 3.16,95,78,54.4,45.6,95.7,82.4,64.4,47.6,96.8,66.2,50.4,45,34.6,23.7,22.9,"viability, T/C [21]: 30.5%; viability, T/C [22]: 22.1%; viability, T/C [23]: 35.3%; viability, T/C [24]: 26.7%; viability, T/C [10]: 82%; viability, T/C [25]: 37.2%; viability, T/C [26]: 22.6%; viability, T/C [13]: 57.7%; viability, T/C [14]: 50%; viability, T/C [27]: 28.9%; viability, T/C [28]: 21.2%; viability, T/C [17]: 18.5%; viability, T/C [18]: 23.9%; viability, T/C [29]: 20.4%; viability, T/C [30]: 6.06%"
CCNC(=O)CC1N=C(c2ccc(Cl)cc2)c2cc(OC)ccc2-n2c(C)nnc21 (stereo not given) + C=CC(=O)N1CCN(c2nc(=O)n(-c3c(C)ccnc3C(C)C)c3nc(-c4c(O)cccc4F)c(F)cc23)C(C)C1,6090,6080,4240,530,< 31.6,–,–,111,104,–,–,117,103,–,109,97,78.2,69.1,29.1,26.2,"viability, T/C [21]: 77.2%; viability, T/C [22]: 63.1%; viability, T/C (second compound 0.1 µM, first compound 3.16 µM): 60.7%; viability, T/C (second compound 0.1 µM, first compound 10 µM): 43.4%; viability, T/C [23]: 81.1%; viability, T/C [24]: 68.8%; viability, T/C (second compound 0.316 µM, first compound 3.16 µM): 63%; viability, T/C (second compound 0.316 µM, first compound 10 µM): 41.5%; viability, T/C [25]: 77.6%; viability, T/C [26]: 65.4%; viability, T/C (second compound 1 µM, first compound 3.16 µM): 54.8%; viability, T/C (second compound 1 µM, first compound 10 µM): 40.7%; viability, T/C [27]: 53.1%; viability, T/C [28]: 43.8%; viability, T/C (second compound 3.16 µM, first compound 3.16 µM): 35.6%; viability, T/C (second compound 3.16 µM, first compound 10 µM): 26.4%; viability, T/C [29]: 23.8%; viability, T/C [30]: 16.8%; viability, T/C (second compound 10 µM, first compound 3.16 µM): 9.64%; viability, T/C (second compound 10 µM, first compound 10 µM): 6.83%"
